How the values were obtained:
[1] = Retention time of the compound by RP-HPLC analysis; format: physicochemical
Oxytocin receptor [2] = biological target: T1, Oxytocin receptor (Homo sapiens, UniProt P30559); assay: Binding affinity to SNAP-tagged oxytocin receptor (unknown origin) expressed in HEK293 cells by TR-FRET assay; format: cell-based
T1 sequence (P30559 whole entry): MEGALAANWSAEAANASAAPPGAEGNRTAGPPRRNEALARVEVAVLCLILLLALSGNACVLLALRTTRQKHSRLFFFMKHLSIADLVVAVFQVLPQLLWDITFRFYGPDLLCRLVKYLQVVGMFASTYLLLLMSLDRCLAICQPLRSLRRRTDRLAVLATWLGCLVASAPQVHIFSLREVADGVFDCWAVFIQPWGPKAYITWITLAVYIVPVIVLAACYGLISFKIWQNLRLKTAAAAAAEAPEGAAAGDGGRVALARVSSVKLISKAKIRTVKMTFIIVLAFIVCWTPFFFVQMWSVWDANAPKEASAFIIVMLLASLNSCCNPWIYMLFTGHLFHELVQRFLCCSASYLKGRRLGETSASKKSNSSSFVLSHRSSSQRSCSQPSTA

Vasopressin V1a receptor [3] = biological target: T2, Vasopressin V1a receptor (Homo sapiens, UniProt P37288); assay: Binding affinity to V1aR (unknown origin) expressed in HEK293 cells by TR-FRET assay; format: cell-based
Vasopressin V1b receptor = biological target: T3, Vasopressin V1b receptor (Homo sapiens, UniProt P47901); assay: Binding affinity to V1bR (unknown origin) expressed in HEK293 cells by TR-FRET assay; format: cell-based
T3 sequence (P47901 whole entry): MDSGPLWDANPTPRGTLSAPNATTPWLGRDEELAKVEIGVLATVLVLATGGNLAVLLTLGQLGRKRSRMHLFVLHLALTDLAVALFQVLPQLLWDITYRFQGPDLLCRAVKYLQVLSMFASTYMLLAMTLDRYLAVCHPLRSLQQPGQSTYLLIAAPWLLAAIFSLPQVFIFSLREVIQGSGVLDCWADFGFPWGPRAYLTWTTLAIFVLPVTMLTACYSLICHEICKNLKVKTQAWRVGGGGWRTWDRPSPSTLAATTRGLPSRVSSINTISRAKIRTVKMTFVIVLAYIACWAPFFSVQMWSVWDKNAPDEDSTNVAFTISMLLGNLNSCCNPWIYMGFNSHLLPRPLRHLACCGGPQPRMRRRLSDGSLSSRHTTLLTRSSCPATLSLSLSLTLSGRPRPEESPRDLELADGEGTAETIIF

Vasopressin V2 receptor [4] = biological target: T4, Vasopressin V2 receptor (Homo sapiens, UniProt P30518); assay: Binding affinity to V2R (unknown origin) expressed in HEK293 cells by TR-FRET assay; format: cell-based
Oxytocin receptor [5] = biological target: T1, Oxytocin receptor; assay: Binding affinity to SNAP-tagged oxytocin receptor (unknown origin) expressed in HEK293 cells assessed as association constant after 5 to 120 mins by TR-FRET assay; format: cell-based
Oxytocin receptor [6] = biological target: T1, Oxytocin receptor; assay: Binding affinity to SNAP-tagged oxytocin receptor (unknown origin) expressed in HEK293 cells assessed as dissociation constant after 5 to 120 mins by TR-FRET assay; format: cell-based
Homo sapiens = species on record: Homo sapiens; assay: Selectivity ratio of Kd for V1aR (unknown origin) to Kd for SNAP-tagged oxytocin receptor (unknown origin)
Oxytocin receptor [7] = biological target: T1, Oxytocin receptor; assay: Binding affinity to OTR (unknown origin)
Vasopressin V1a receptor [8] = biological target: T2, Vasopressin V1a receptor; assay: Binding affinity to V1aR (unknown origin)
Vasopressin V2 receptor [9] = biological target: T4, Vasopressin V2 receptor; assay: Binding affinity to V2R (unknown origin)
Oxytocin receptor [10] = biological target: T1, Oxytocin receptor; assay: Competitive binding to SNAP-tagged oxytocin receptor (unknown origin) expressed in HEK293 cells incubated for 1 hr at RT followed by 4 hrs at 4 degC by TR-FRET assay in presence of 5-(3-(22-(3-carboxy-4-(3-oxo-3H-xanthen-9-yl)phenyl)-15,22-dioxo-2,5,8,11-tetraoxa-14,21-diazadocosyl)-5-(3-(2-chloro-4-fluorophenoxy)azetidin-1-yl)-4H-1,2,4-triazol-4-yl)-2-methoxypyridinium 2,2,2-trifluoroacetate; format: cell-based
Oxytocin receptor [11] = biological target: T1, Oxytocin receptor; assay: Competitive binding to SNAP-tagged oxytocin receptor (unknown origin) expressed in HEK293 cells incubated for 1 hr at RT followed by 4 hrs at 4 degC by TR-FRET assay in presence of 2-(5-(3-(1-(5-(3-(2-chloro-4-fluorophenoxy)azetidin-1-yl)-4-(6-methoxypyridinium-3-yl)-4H-1,2,4-triazol-3-yl)-15-oxo-2,5,8,11-tetraoxa-14-azaoctadecan-18-yl)-1-ethyl-3-methyl-5-sulfoindolin-2-ylidene)penta-1,3-dienyl)-1 …; format: cell-based

T4 sequence (P30518 whole entry): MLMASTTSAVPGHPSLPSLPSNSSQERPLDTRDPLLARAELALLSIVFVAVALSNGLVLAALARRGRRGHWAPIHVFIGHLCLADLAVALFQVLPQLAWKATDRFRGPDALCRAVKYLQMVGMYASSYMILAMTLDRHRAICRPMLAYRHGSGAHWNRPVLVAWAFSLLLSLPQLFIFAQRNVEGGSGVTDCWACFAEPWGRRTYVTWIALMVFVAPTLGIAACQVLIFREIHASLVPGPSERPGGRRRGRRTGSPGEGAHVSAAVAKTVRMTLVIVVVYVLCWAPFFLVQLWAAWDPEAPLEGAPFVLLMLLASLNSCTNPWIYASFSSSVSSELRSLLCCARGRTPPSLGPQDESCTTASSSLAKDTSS
T2 sequence (P37288 whole entry): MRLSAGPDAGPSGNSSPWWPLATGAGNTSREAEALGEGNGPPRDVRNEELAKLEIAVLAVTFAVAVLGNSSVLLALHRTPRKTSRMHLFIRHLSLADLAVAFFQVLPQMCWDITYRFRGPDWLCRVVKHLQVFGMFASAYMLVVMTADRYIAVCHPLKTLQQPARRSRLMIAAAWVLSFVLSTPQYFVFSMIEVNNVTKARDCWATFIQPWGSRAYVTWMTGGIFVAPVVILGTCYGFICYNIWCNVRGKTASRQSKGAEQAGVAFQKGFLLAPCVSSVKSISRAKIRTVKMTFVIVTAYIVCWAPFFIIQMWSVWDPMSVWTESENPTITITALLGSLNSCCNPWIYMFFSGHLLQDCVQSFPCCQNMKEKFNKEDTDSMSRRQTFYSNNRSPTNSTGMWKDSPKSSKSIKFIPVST

Retention_time [1] [min]	Kd (Oxytocin receptor [2]) [µM]	Kd (Vasopressin V1a receptor [3]) [µM]	Kd (Vasopressin V1b receptor) [µM]	Kd (Vasopressin V2 receptor [4]) [µM]	kon (Oxytocin receptor [5]) [×10⁶ /M/min]	koff (Oxytocin receptor [6]) [×10⁻³ /min]	Ratio (Homo sapiens)	Ki (Oxytocin receptor [7]) [µM]	Ki (Vasopressin V1a receptor [8]) [µM]	Ki (Vasopressin V2 receptor [9]) [µM]	Ki (Oxytocin receptor [10]) [µM]	Ki (Oxytocin receptor [11]) [µM]	SMILES
4.38	0.00159	> 1	> 1	> 1	3.57	18.9							COc1ccc(-n2c(COCCOCCOCCOCCNC(=O)CCCCCNC(=O)c3ccc(-c4c5ccc(=O)cc-5oc5cc(O)ccc45)c(C(=O)O)c3)nnc2N2CC(Oc3ccc(F)cc3Cl)C2)cn1.O=C(O)C(F)(F)F
3.94	0.00159	> 1	> 1	0.509	4.03	10.9							CCN1\C(=C/C=C/C=C/C2=[N+](CC)c3cc(S(=O)(=O)[O-])ccc3C2(C)C)C(C)(CCCC(=O)NCCOCCOCCOCCOCc2nnc(N3CC(Oc4ccc(F)cc4Cl)C3)n2-c2ccc(OC)nc2)c2cc(S(=O)(=O)O)ccc21.O=C(O)C(F)(F)F (stereo not drawn)
4.39	0.00205	> 1	> 1	> 1									COc1ccc(-n2c(COCCOCCOCCOCCOCCOCCOCCOCCNC(=O)CCCCCNC(=O)c3ccc(-c4c5ccc(=O)cc-5oc5cc(O)ccc45)c(C(=O)O)c3)nnc2N2CC(Oc3ccc(F)cc3Cl)C2)cn1.O=C(O)C(F)(F)F
3.97	0.00186	> 1	> 1	0.353									CCN1\C(=C/C=C/C=C/C2=[N+](CC)c3cc(S(=O)(=O)[O-])ccc3C2(C)C)C(C)(CCCC(=O)NCCOCCOCCOCCOCCOCCOCCOCCOCc2nnc(N3CC(Oc4ccc(F)cc4Cl)C3)n2-c2ccc(OC)nc2)c2cc(S(=O)(=O)O)ccc21.O=C(O)C(F)(F)F (stereo not drawn)

Continued, compound first:

SMILES	Retention_time [1] [min]	Kd (Oxytocin receptor [2]) [µM]	Kd (Vasopressin V1a receptor [3]) [µM]	Kd (Vasopressin V1b receptor) [µM]	Kd (Vasopressin V2 receptor [4]) [µM]	kon (Oxytocin receptor [5]) [×10⁶ /M/min]	koff (Oxytocin receptor [6]) [×10⁻³ /min]	Ratio (Homo sapiens)	Ki (Oxytocin receptor [7]) [µM]	Ki (Vasopressin V1a receptor [8]) [µM]	Ki (Vasopressin V2 receptor [9]) [µM]	Ki (Oxytocin receptor [10]) [µM]	Ki (Oxytocin receptor [11]) [µM]
CCN1\C(=C/C=C/C=C/C2=[N+](CC)c3cc(S(=O)(=O)[O-])ccc3C2(C)C)C(C)(CCCC(=O)ON2C(=O)CCC2=O)c2cc(S(=O)(=O)O)ccc21 (stereo not drawn)	3.17												
O=C(CCCCCNC(=O)c1ccc(-c2c3ccc(=O)cc-3oc3cc(O)ccc23)c(C(=O)O)c1)NCCNC(=O)CCc1ccc(S(=O)(=O)N(CC(=O)N/N=C2\C(=O)Nc3ccccc32)c2ccc(Cl)cc2)cc1	4.68	0.00173	0.061	> 1	0.135			35					
CCN1\C(=C/C=C/C=C/C2=[N+](CC)c3cc(S(=O)(=O)[O-])ccc3C2(C)C)C(C)(CCCC(=O)NCCNC(=O)CCc2ccc(S(=O)(=O)N(CC(=O)N/N=C3\C(=O)Nc4ccccc43)c3ccc(Cl)cc3)cc2)c2cc(S(=O)(=O)O)ccc21 (stereo not drawn)	3.96	0.00137	0.0197	> 1	0.0305			14					
O=C(CCCCCNC(=O)c1ccc2c(c1)C(=O)OC21c2ccc(O)cc2Oc2cc(O)ccc21)ON1C(=O)CCC1=O	4												
Cc1ccn(Cc2ccc(C(=O)N3Cc4cnn(C)c4Nc4ccccc43)cc2C)n1									0.0278	0.018	0.913	0.00622	0.0066

Source: ChEMBL document CHEMBL3414550 (J Med Chem, 2015)
